Results from US20090318357A1, “Molecules Preferentially Associated with Effector T Cells or Regulatory T Cells and Methods of Their Use” (Tolerx, Inc., priority 2002, published 2009).

Assays:
Assay type in all cases: cell-based, human
Th2 cells [1] = test: Cytokine production in differentiated Th2 cells (Searchlight ELISA); settings: percent of untreated control, 7-12 days
From the text: (§1) Differentiated cell lines were produced from cells prepared from human cord blood or peripheral blood CD4+CD45RA+ naïve T cells by a variety of methods, including flow cytometry and magnetic bead separations. Purity of the starting populations was >95%. Cells were then stimulated by CD3 and CD28 antibodies in RPMI 1640 with 10% FCS and 1% Human AB serum with defined mixtures of cytokines and neutralizing antibodies to cytokines to produce the differentiated cell types. Th1 cells were produced by culture with IL12 (62 U/ml) and anti-IL4 (0.2 ug/ml); Th2 cells were produced by culture in IL4(145 U/ml) and anti-IL12 (10 ug/ml) and anti-IFNγ (10 ug/ml); and regulatory T cells were produced by culture in TGFβ (32 U/ml), IL9 (42 U/ml), anti-IL4 (10 ug/ml) and anti-IL12 (10 ug/ml) and anti-IFNγ (10 ug/ml). (Note: anti-IL12 was not used in all experiments). All cultures were supplemented with IL2 (65 U/ml) and IL15 (4500 U/ml). Cells were split into larger culture dishes as warranted by cell division. At the conclusion of one round of cell differentiation (7-12 days), cells were harvested for preparation of total RNA for use in the gene chip experiments.
(§2) Differentiated cells were prepared as described in Example 1. Varying concentrations (0.1 μM, 1.0 μM and 10 μM) of Thioperamide was added at the time of plating. At the conclusion of one round of cell differentiation (7-12 days), cells were assayed for the production of the cytokines, IL-2, IL-4, IL-5, IL-10, IL-12-p70, IL-13, IFN-γ, TNF-alpha, and TGFβ1, by Searchlight™ technology, a chemiluminescent enzyme-linked immunoabsorbant assay (ELISA) according to the manufacturer's instructions, commercially available from Pierce Biotechnology.
(§3) Data are plotted as a percent of control (untreated) assuming that the levels of cytokine production in stimulated differentiated cells in the absence of Thioperamide is 100%.
(§4) Differentiated cells were prepared as described in Example 1. Varying concentrations (1.0 μM, 10.0 μM and 100 μM) of Serotonin was added at the time of plating. At the conclusion of one round of cell differentiation (7-12 days), cells were assayed for the production of the cytokines, IL-2, IL-4, IL-5, IL-10, IL-12-p70, IL-13, IFN-γ, TNFα, and TGFβ1, by ELISA as described in Example 5.
(§5) Data are plotted as a percent of control (untreated) assuming that the levels of cytokine production in stimulated PBL in the absence of Serotonin is 100%.
as §4, with “(0.1” for “(1.0”, “1.0” for “10.0”, “10.0” for “100”, “Rolipram or Zardaverine” for “Serotonin”
(§6) The results of the effect of Rolipram on the production of cytokines is shown in FIGS. 11A, 11B, and 11C, and the results of the effect of Zardaverine on the production of cytokines is shown in FIGS. 12A, 12B, and 12C. Data are plotted as a percent of control (untreated) assuming that the levels of cytokine production in stimulated PBL in the absence of rolipram or zardaverine is 100%.

Th1 cells [2] = test: Cytokine production in differentiated Th1 cells (Searchlight ELISA); settings: percent of untreated control, 7-12 days
From the text: as §1, §2, §3, §4, §5
as §4, with “(0.1” for “(1.0”, “1.0” for “10.0”, “10.0” for “100”, “Rolipram or Zardaverine” for “Serotonin”
as §6

Th1 cells [3] = test: Proliferation of differentiated Th1 cells (cell count); settings: re-stimulated with anti-CD3 and anti-CD28, three days, cells counted; vs untreated cells
From the text: (§7) Differentiated cell lines were produced from cells prepared from human cord blood or peripheral blood CD4+CD45RA+ naïve T cells by a variety of methods, including flow cytometry and magnetic bead separations. Purity of the starting populations was >95%. Cells were then stimulated by CD3 and CD28 antibodies in RPMI 1640 with 10% FCS and 1% Human AB serum with defined mixtures of cytokines and neutralizing antibodies to cytokines to produce the differentiated cell types. […]
(§8) Differentiated cell types were prepared as described in Example 1 then cultured in the presence of anti-CD3 and anti-CD28 for seven days. Cells were subsequently re-stimulated with anti-CD3 and anti-CD28, with the addition of Serotonin at 1, 10 and 100 μM, for three days at which time the cells were counted and the data were plotted as a percent of control (untreated cells).
as §8, with “anti-CD28 (as described in Example 7),” for “anti-CD28,”, “either Rolipram or Zardaverine” for “Serotonin”, “0.1 μM, 1.0 μM and” for “1,”, “μM” for “and 100 μM,”

TGFβ1-derived Treg cells [4] = test: Cytokine production in TGFβ1-derived Treg cells (Searchlight ELISA); settings: percent of untreated control, 7-12 days
From the text: as §1, §2, §3, §4, §5
as §4, with “(0.1” for “(1.0”, “1.0” for “10.0”, “10.0” for “100”, “Rolipram or Zardaverine” for “Serotonin”
as §6

[5] = test system: anti-CD3/anti-CD28 stimulated PBLs; test: Transcription factor (FOXP3, Tbox21, GATA3) mRNA expression by Real-Time PCR in activated PBL
Procedure: This example describes the effect of TGFβ1 on the expression levels of Tbox 21, GATA3 and FOXP3 expression in anti-CD3/anti-CD28 stimulated PBLs. Real-time PCR was used to quantitate the levels of transcription factor mRNA in the presence and absence of TGFβ1.
PBL were stimulated for 72 hours with anti-CD3/anti-CD28 in the presence or absence of TGFβ1 and total RNA was extracted using a QiganRNeasy Mini Kit according to manufacturer's instructions. RNA was stored at minus 80° C.
cDNA was prepared from RNA using the Applied Biosystems High-Capacity cDNA Archive Kit according to manufacturer's instructions.
One μg cDNA was amplified using Applied Biosystems Assays-on-Demand™ Gene Expression products (i.e., TaqMan Universal PCR Mastermix and Assay-on-Demand solution, including marker specific primers) according to the following protocol, in accordance with manufacturer's instructions. Probe/primer reagents for FOXP3, GATA3 and Tbox21 were obtained from Applied Biosystems via the Assay on Demand program.
For the QPCR reaction, 2.5 μl Assay on Demand reagent (Applied Biosystems) were added to 25 μl TaqMan Master Mix™ and samples brought to a total volume of 50 μl with RNAse-free water. PCR reactions were run under the following conditions: 50° C. for 1 minute, 95° C. for 10 minutes and 40 cycles of 95° C. for 15 seconds followed by 60° C. for 1 minute. 18 sRNA or β-actin was run with every assay as a control; 2.5 μl of primer/probe mix, 25 μl of TaqMan MasterMix™, 22.5 μl RNAse-free water. Reactants were detected using an Applied Biosystems QPCR instrument (i.e., ABI Program 7000 SDS Sequence Detection System). The relative expression of the transcription factors for both TGFβ1-treated and untreated stimulated PBLs was determined. Relative expression was calculated assuming that the levels of transcription factor mRNA in stimulated PBL in the absence of added cytokines was 100%. […]

Th2 cells [6] = test: Proliferation of differentiated Th2 cells (cell count); settings: cells counted
From the text: as §7, §8
as §8, with “anti-CD28 (as described in Example 7),” for “anti-CD28,”, “either Rolipram or Zardaverine” for “Serotonin”, “0.1 μM, 1.0 μM and” for “1,”, “μM” for “and 100 μM,”

TGFβ1-derived Treg cells [7] = test: Proliferation of TGFβ1-derived Treg cells (cell count); settings: cells counted; for proliferation of TGFβ1-derived Treg cells: re-stimulated with anti-CD3 and anti-CD28, three days, vs untreated cells
From the text: as §1, §8
as §8, with “anti-CD28 (as described in Example 7),” for “anti-CD28,”, “either Rolipram or Zardaverine” for “Serotonin”, “0.1 μM, 1.0 μM and” for “1,”, “μM” for “and 100 μM,”

[8] = mRNA, among the concentrations tested
[9] = mRNA, over the concentrations tested, control = 100%
[10] = PBL stimulated 72 hours with anti-CD3/anti-CD28, mRNA, FIG. 1

Compound	production of IL-4 (Th2 cells [1])	production of IL-5 (Th2 cells [1])	production of IL-10 (Th2 cells [1])	production of IL-13 (Th2 cells [1])	production of IFN-gamma (Th1 cells [2])	production of IL-10 (Th1 cells [2])	production of TNF-alpha (Th1 cells [2])	proliferation of Th1 cells (Th1 cells [3])	production of IFN-gamma (TGFβ1-derived Treg cells [4])	production of IL-2 (TGFβ1-derived Treg cells [4])	production of TGFβ1 (TGFβ1-derived Treg cells [4])	FOXP3 expression relative to control [5, 9]	GATA3 expression relative to control [5, 9]	Tbox21 expression relative to control [5, 9]	proliferation of TGFβ1-derived Treg cells (TGFβ1-derived Treg cells [7])	also measured
NCCc1c[nH]c2ccc(O)cc12 [Serotonin]	significantly reduced	significantly reduced	no effect	significantly reduced	significantly reduced	significantly reduced	significantly reduced	no proliferative effect	significantly reduced	significantly reduced	significantly reduced	increase	increase	increase	no proliferative effect	production of IL-2 (Th1 cells [2]): significantly reduced; production of IL-12 (Th1 cells [2]): significantly reduced; concentration of maximal GATA3 induction [5, 8]: 10.0 µM; concentration of maximal Tbox 21 induction [5, 8]: 1.0 µM; increase of proliferation of Th2 cells compared to untreated control cells (Th2 cells [6]; at each concentration tested (1, 10 and 100 μM), three days): 50%
COc1ccc(C2CNC(=O)C2)cc1OC1CCCC1 (stereo not drawn) [Rolipram]	significantly increased	significantly increased	–	significantly increased	–	significantly reduced	–	reduce	–	–	significantly increased	increased expression	increased expression	neither of these inhibitors had more than a modest effect	reduce	proliferation of Th2 cells (Th2 cells [6]; re-stimulated with anti-CD3 and anti-CD28, three days, vs untreated cells): reduce; proliferation of TGFβ1-derived Treg cells compared with Th1 and Th2 cells (TGFβ1-derived Treg cells [7]; 0.1, 1.0 and 10 μM, three days): may have been more strongly affected
S=C(NC1CCCCC1)N1CCC(c2cnc[nH]2)CC1 [Thioperamide]	significantly increased	significantly increased	significantly reduced	significantly increased	significantly induce	–	significantly induce	–	significantly increased	significantly increased	significantly increased	–	–	relatively unchanged	–	production of IL-13 (Th1 cells [2]): significantly reducing; production of IL-4 (TGFβ1-derived Treg cells [4]): significantly reduced; production of IL-10 (TGFβ1-derived Treg cells [4]): significantly increased; FOXP3 expression relative to control ([5]; at 10 μM): moderate increase; GATA3 expression relative to control ([5]; at 10 μM): moderate increase
TGFβ1: Transforming growth factor, beta 1; secreted protein added to stimulated PBL	–	–	–	–	–	–	–	–	–	–	–	–	–	–	–	FOXP3 expression relative to an untreated control [5, 10]: approximately 2.5 fold; GATA3 expression relative to an untreated control [5, 10]: approximately 2 fold
CC(C)Oc1ccc2c(=O)c3cc(C(=O)O)ccc3oc2c1 [AH6809]	–	–	–	–	–	–	–	–	–	–	–	trend toward increasing	unchanged	–	–	Tbox21 expression relative to untreated control ([5]; at 0.1 μM): increased; Tbox21 expression relative to untreated control ([5]; at 10 μM): decreased; concentration of maximal FOXP3 expression [5, 8]: 0.1 µM
